# Target: bovine cerebral TPK1 (Bos taurus, UniProt A0A059UE90)
# Experiment: Inhibitory activity against P-GS1 phosphorylation by bovine cerebral TPK1
# Type: biochemical
# Settings: P-GS1 phosphorylation, 41.7 μM [γ-32P] ATP, 25° C., 2 hours; read-out: IC50
# Procedure: Inhibitory Activity of the Medicament of the Present Invention Against P-GS1 Phosphorylation by Bovine Cerebral TPK1 […] The phosphorylation was started by adding ATP, and the reaction was conducted at 25° C. for 2 hours, and then stopped by adding 21% perchloric acid on ice cooling. The reaction mixture was centrifuged at 12,000 rpm for 5 minutes and adsorbed on P81 paper (Whatmann), and then the paper was washed four times with 75 mM phosphoric acid, three times with water and once with acetone. The paper was dried, and the residual radioactivity was measured using a liquid scintillation counter.
# bovine cerebral TPK1, sequence (A0A059UE90 1-419): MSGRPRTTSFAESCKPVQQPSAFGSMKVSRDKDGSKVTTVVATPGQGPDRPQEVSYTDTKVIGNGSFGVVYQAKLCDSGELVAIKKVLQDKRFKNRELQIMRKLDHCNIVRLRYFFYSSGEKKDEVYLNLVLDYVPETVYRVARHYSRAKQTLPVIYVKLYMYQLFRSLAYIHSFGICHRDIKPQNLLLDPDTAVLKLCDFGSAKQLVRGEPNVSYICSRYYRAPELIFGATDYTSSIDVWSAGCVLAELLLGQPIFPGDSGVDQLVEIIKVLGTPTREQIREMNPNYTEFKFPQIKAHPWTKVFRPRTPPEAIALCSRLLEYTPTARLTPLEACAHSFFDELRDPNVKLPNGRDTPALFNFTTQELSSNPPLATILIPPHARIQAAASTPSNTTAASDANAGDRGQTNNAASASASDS
row,IC50 [nM],Structure (SMILES)
1,39.8,"CN(C)Cc1ccc(C(=O)N2CCC(Oc3nc(-c4ccncn4)cc(=O)n3C)CC2)cc1 [Compound No. 1.601, 2-[1-(4-Dimethylaminomethyl-benzoyl)piperidin-4-yloxy]-1-methyl-1H-[4,4′]bipyrimidinyl-6-one]"
2,27.4,"CC(=O)N1CCN(c2ccc(N3CCC(Oc4nc(-c5ccncn5)cc(=O)n4C)CC3)cc2)CC1 [1.210, 2-{1-[4-(4-Acetyl-piperazin-1-yl)phenyl]piperidin-4-yloxy}-1-methyl-1H-[4,4′]bipyrimidinyl-6-one]"
3,8.4,"Cn1c(OC2CCN(c3ccc(CN4Cc5ccccc5C4)cc3)CC2)nc(-c2ccncn2)cc1=O [1.219, 2-{1-[4-(1,3-Dihydro-isoindol-2-ylmethyl)phenyl]piperidin-4-yloxy}-1-methyl-1H-[4,4′]bipyrimidinyl-6-one]"
4,14.9,"CN1CCN(Cc2ccccc2N2CCC(Oc3nc(-c4ccncn4)cc(=O)n3C)CC2)CC1 [1.302, 1-Methyl-2-{1-[2-(4-methyl-piperazin-1-ylmethyl)phenyl]piperidin-4-yloxy}-1H-[4,4′]bipyrimidinyl-6-one]"
5,98.2,"COc1ccc(N2CCCC(Oc3nc(-c4ccncn4)cc(=O)n3C)C2)cc1 (stereo not shown) [1.107, 2-[1-(4-Methoxy-phenyl)piperidin-3-yloxy]-1-methyl-1H-[4,4′]bipyrimidinyl-6-one]"
6,19.4,"Cn1c(OC2CCN(c3ccc(CN4CCOCC4)cc3)CC2)nc(-c2ccncn2)cc1=O [1.213, 1-Methyl-2-[1-(4-morpholin-4-ylmethyl-phenyl)piperidin-4-yloxy]-1H-[4,4′]bipyrimidinyl-6-one]"
7,12.8,"Cn1c(OC2CCN(c3ccc(CN4CCCCC4)cc3)C2)nc(-c2ccncn2)cc1=O (stereo not shown) [1.231, 1-Methyl-2-[1-(4-piperidin-1-ylmethyl-phenyl)pyrrolidin-3-yloxy]-1H-[4,4′]bipyrimidinyl-6-one]"
8,61.1,"Cn1c(OC2CCN(c3ccccc3CN3CCOCC3)CC2)nc(-c2ccncn2)cc1=O [Compound No. 1.301, 1-Methyl-2-[1-(2-morpholin-4-ylmethyl-phenyl)piperidin-4-yloxy]-1H-[4,4′]bipyrimidinyl-6-one]"
9,9.4,"Cn1c(OC2CCN(c3ccc4c(c3)CNC4)CC2)nc(-c2ccncn2)cc1=O [1.225, 2-[1-(2,3-Dihydro-1H-isoindol-5-yl)piperidin-4-yloxy]-1-methyl-1H-[4,4′]bipyrimidinyl-6-one]"
10,10.7,"Cn1c(OC2CCN(c3ccc(N4CCNCC4)cc3)CC2)nc(-c2ccncn2)cc1=O [1.208, 1-Methyl-2-[1-(4-piperazin-1-yl-phenyl)-piperidin-4-yloxy]-1H-[4,4′]bipyrimidinyl-6-one]"
11,154,"CC(=O)N1Cc2ccc(N3CCC(Oc4nc(-c5ccncn5)cc(=O)n4C)CC3)cc2C1 [1.230, 2-[1-(2-Acetyl-2,3-dihydro-1H-isoindol-5-yl)piperidin-4-yloxy]-1-methyl-1H-[4,4′]bipyrimidinyl-6-one]"
12,37.6,"Cn1c(OC2CCN(c3ccccc3)CC2)nc(-c2ccncn2)cc1=O [1.205, 1-Methyl-2-(1-phenyl-piperidin-4-yloxy)-1H-[4,4′]bipyrimidinyl-6-one]"

# The remaining lines, values behind:
row,Structure (SMILES),IC50 [nM]
1,"Cn1c(OC2CCN(c3ccc([N+](=O)[O-])s3)CC2)nc(-c2ccncn2)cc1=O [1.228, 1-Methyl-2-[1-(5-nitro-thiophen-2-yl)piperidin-4-yloxy]-1H-[4,4′] bipyrimidinyl-6-one]",555
2,"Cn1c(OCC2(c3ccccc3)OCCO2)nc(-c2ccncn2)cc1=O [Compound No. 2.501, 1-Methyl-2-(2-phenyl-[1,3]dioxolan-2-ylmethoxy)-1H-[4,4′] bipyrimidinyl-6-one]",386
3,"CN1CCN(Cc2ccc([C@H]3CC[C@H](Oc4nc(-c5ccncn5)cc(=O)n4C)CC3)cc2)CC1 [Compound No. 1.903, 1-Methyl-2-{trans-4-[4-(4-methyl-piperazin-1-ylmethyl)phenyl]cyclohexyloxy}-1H-[4,4′] bipyrimidinyl-6-one]",7.8
4,"Cn1c(OC[C@H]2CCCN2c2ccc(F)cc2)nc(-c2ccncn2)cc1=O [2.202, 2-[(2R)-1-(4-Fluoro-phenyl)pyrrolidin-2-ylmethoxy]-1-methyl-1H-[4,4′]bipyrimidinyl-6-one]",158
5,"Cn1c(OC[C@H]2CCN(c3ccccc3)C2)nc(-c2ccncc2F)cc1=O [2.210, 6-(3-Fluoro-pyridin-4-yl)-3-methyl-2-[(3S)-1-phenyl-pyrrolidin-3-ylmethoxy]-3H-pyrimidin-4-one]",134
6,"Cn1c(OC2CCCN(c3ccccc3)C2)nc(-c2ccncn2)cc1=O (stereo not shown) [Compound No. 1.101, 1-Methyl-2-(1-phenyl-piperidin-3-yloxy)-1H-[4,4′]bipyrimidinyl-6-one]",9.4
7,"CN1CCC(N2CCC(Oc3nc(-c4ccncn4)cc(=O)n3C)CC2)CC1 [1.505, 1-Methyl-2-(1′-methyl-[1,4′]bipiperidinyl-4-yloxy)-1H-[4,4′] bipyrimidinyl-6-one]",394
8,"CCN(CCOc1nc(-c2ccncn2)cc(=O)n1C)c1cccc(C)c1 [1.809, 2-[2-(Ethyl-m-tolyl-amino)-ethoxy]-1-methyl-1H-[4,4′] bipyrimidinyl-6-one]",431
9,"Cn1c(OCC2CCN(c3ccc(CN4CCCCC4)cc3)CC2)nc(-c2ccncc2)cc1=O [1.232, 3-Methyl-2-[1-(4-piperidin-1-ylmethyl-phenyl)piperidin-4-ylmethoxy]-6-pyridin-4-yl-3H-pyrimidin-4-one]",162
10,"Cn1c(OC2CCN(c3ccc(CN4CCCC4=O)cc3)CC2)nc(-c2ccncc2F)cc1=O [1.218, 6-(3-Fluoro-pyridin-4-yl)-3-methyl-2-{1-[4-(2-oxo-pyrrolidin-1-ylmethyl)phenyl]piperidin-4-yloxy}-3H-pyrimidin-4-one]",153
11,"Cn1c(OC2CCCN(c3ccccc3F)C2)nc(-c2ccncn2)cc1=O (stereo not shown) [1.103, 2-[1-(2-Fluoro-phenyl)piperidin-3-yloxy]-1-methyl-1H-[4,4′] bipyrimidinyl-6-one]",49
12,"Cn1c(OC[C@H]2CCCN2C(=O)Oc2ccccc2)nc(-c2ccncn2)cc1=O [Compound No. 2.201, Phenyl (2R)-2-(1-methyl-6-oxo-1,6-dihydro-[4,4′]bipyrimidinyl-2-yloxymethyl)pyrrolidine-1-carboxylate]",56.4
13,"Cc1ccc(S(=O)(=O)N2CCC(Oc3nc(-c4ccncn4)cc(=O)n3C)CC2)cc1 [1.111, 1-Methyl-2-[1-(toluene-4-sulfonyl)piperidin-4-yloxy]-1H-[4,4′] bipyrimidinyl-6-one]",194
14,"Cn1c(OCC2CCN(c3ccc(CN4CCCCC4)cc3)CC2)nc(-c2ccncc2F)cc1=O [1.234, 6-(3-Fluoro-pyridin-4-yl)-3-methyl-2-[1-(4-piperidin-1-ylmethyl-phenyl)piperidin-4-ylmethoxy]-3H-pyrimidin-4-one]",15.6
15,"Cn1c(OC2CCCN(S(=O)(=O)c3ccccc3)C2)nc(-c2ccncn2)cc1=O (stereo not shown) [1.109, 2-(1-Benzenesulfonyl-piperidin-3-yloxy)-1-methyl-1H-[4,4′] bipyrimidinyl-6-one]",76.1
16,"CCN(CCOc1nc(-c2ccncc2F)cc(=O)n1C)c1cccc(C)c1 [1.808, 2-[2-(Ethyl-m-tolyl-amino)-ethoxy]-6-(3-fluoro-pyridin-4-yl)-3-methyl-3H-pyrimidin-4-one]",67
